From patent US10392404B2, “Compounds and compositions as kinase inhibitors” (NOVARTIS AG, priority 2014, dated 2019)

How the values were obtained:
C-RAF = molecular target: T1, C-RAF (Homo sapiens, UniProt P04049, Y340E/Y341E); test: In vitro Raf activity determination (Alpha Screen, biotinylated kinase-dead MEK1 substrate), C-Raf; format: biochemical; conditions: c-Raf approximately 4 nM; ATP 1 μM; pre-incubation 60 minutes; reaction 1 hour at room temperature
T1 construct: His tag (implied by nickel chromatography) (cleaved yes); StrepII tag (cleaved yes); made in house; host or cells: Sf9 insect cells (baculovirus), CRAF and h14-3-3 zeta co-expressed; MEK1 substrate from E. coli
T1 sequence (P04049 whole entry Y340E/Y341E): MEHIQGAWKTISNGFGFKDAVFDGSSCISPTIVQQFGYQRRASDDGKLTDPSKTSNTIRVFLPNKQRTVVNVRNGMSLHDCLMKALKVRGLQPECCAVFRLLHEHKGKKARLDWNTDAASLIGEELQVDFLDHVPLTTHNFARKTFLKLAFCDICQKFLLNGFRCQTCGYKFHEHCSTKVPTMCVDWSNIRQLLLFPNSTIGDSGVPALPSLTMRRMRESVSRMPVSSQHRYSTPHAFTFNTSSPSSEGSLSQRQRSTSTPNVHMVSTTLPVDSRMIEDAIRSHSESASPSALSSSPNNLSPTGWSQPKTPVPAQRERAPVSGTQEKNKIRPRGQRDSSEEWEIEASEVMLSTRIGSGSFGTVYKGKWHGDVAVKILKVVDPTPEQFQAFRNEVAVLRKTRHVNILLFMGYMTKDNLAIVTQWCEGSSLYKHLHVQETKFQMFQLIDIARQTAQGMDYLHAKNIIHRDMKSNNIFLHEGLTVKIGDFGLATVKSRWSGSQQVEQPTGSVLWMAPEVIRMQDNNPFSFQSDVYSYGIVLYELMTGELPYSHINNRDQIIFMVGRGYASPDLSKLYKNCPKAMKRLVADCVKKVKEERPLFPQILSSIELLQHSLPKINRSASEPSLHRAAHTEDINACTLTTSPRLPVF
T1 sequence (P63104 whole entry partner): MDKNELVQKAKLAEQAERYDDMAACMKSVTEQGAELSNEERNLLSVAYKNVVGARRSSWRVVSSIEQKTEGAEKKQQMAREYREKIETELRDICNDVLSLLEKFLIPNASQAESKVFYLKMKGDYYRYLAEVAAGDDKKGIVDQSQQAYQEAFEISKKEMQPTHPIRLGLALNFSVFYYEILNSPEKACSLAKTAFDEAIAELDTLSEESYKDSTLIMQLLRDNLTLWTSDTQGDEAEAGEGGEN
How it was run: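 AlphaScreen read-out of MEK phosphorylation using an anti-phospho-MEK1/2 antibody after a 1 hour room-temperature reaction at 1 μM ATP. Enzyme: approximately 4 nM Sf9-expressed full-length activated C-Raf (Y340E/Y341E, with 14-3-3ζ) on approximately 10 nM biotinylated K97R MEK1, after 60 min compound preincubation. IC50 by non-linear fit.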

b-Raf (V600E) = molecular target: T2, b-Raf (V600E) (Homo sapiens, UniProt P15056, V600E); test: In vitro Raf activity determination (Alpha Screen, biotinylated kinase-dead MEK1 substrate), B-Raf; format: biochemical; conditions: b-Raf (V600E) approximately 4 pM; ATP 10 μM; pre-incubation 60 minutes; reaction 3 hours at room temperature
T2 construct: made in house
T2 sequence (P15056 whole entry V600E): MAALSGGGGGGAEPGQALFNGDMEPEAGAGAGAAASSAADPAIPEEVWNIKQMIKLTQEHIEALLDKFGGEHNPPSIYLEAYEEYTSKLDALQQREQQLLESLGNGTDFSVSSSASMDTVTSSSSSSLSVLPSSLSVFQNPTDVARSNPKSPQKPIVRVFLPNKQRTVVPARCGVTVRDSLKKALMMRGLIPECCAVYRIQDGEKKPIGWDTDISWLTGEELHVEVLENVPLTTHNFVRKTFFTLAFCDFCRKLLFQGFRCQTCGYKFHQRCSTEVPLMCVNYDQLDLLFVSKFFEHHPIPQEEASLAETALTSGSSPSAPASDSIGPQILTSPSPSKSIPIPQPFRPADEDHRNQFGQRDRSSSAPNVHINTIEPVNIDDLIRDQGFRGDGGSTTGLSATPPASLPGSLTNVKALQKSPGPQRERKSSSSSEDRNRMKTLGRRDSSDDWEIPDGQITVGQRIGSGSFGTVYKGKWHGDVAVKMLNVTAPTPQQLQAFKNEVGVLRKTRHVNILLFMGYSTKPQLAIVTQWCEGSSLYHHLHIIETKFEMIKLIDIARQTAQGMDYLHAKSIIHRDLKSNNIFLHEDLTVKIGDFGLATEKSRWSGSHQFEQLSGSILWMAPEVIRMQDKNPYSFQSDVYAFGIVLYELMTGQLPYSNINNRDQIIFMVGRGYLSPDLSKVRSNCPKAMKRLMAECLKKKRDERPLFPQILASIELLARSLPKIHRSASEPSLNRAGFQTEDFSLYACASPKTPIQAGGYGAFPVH
How it was run: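 IC50 from non-linear regression of AlphaScreen phospho-MEK signal (anti-p-MEK1/2 antibody). b-Raf(V600E), about 4 pM, phosphorylated ~10 nM biotinylated K97R MEK1 with 10 μM ATP for 3 h at room temperature after 60 min compound pre-incubation; buffer pH 7.5 Tris, 15 mM MgCl2, 1 mM DTT.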

IC50 (C-RAF) [nM]	IC50 (b-Raf (V600E)) [nM]	Structure (SMILES)
0.103	0.575	Cc1ccc(NC(=O)c2ccnc(C(F)(F)F)c2)cc1-c1cnc(NC2CC2)c(C#N)c1 [Example 21, N-(3-(5-cyano-6-(cyclopropylamino)pyridin-3-yl)-4-methylphenyl)-2-(trifluoromethyl) isonicotinamide]
0.25	1.98	CNc1ncc(-c2cc(NC(=O)c3cccc(C(F)(F)F)c3)cnc2C)cc1C#N [Example 8, N-(5′-cyano-2-methyl-6′-(methylamino)-[3,3′-bipyridin]-5-yl)-3-(trifluoromethyl) benzamide]
0.695	2	Cc1ccc(NC(=O)c2cc(C(F)(F)F)ccn2)cc1-c1cnc(NC2CCOCC2)c(C#N)c1 [Example 226, N-(3-(5-cyano-6-((tetrahydro-2H-pyran-4-yl)amino)pyridin-3-yl)-4-methylphenyl)-4-(trifluoromethyl) picolinamide]
0.386	2.62	COCCNc1ncc(-c2cc(NC(=O)c3cccc(C(F)F)c3)cnc2C)cc1C#N [Example 199, N-(5′-cyano-6′-((2-methoxyethyl)amino)-2-methyl-[3,3′-bipyridin]-5-yl)-3-(difluoromethyl) benzamide]
30.8	404	Cc1ncc(NC(=O)c2cc(C3CC3)nn2C)cc1-c1cnc(N(C)C)c(C#N)c1 [Example 266, N-(5′-cyano-6′-(dimethylamino)-2-methyl-[3,3′-bipyridin]-5-yl)-3-cyclopropyl-1-methyl-1H-pyrazole-5-carboxamide]
0.0675	0.342	Cc1ccc(NC(=O)c2ccnc(C(F)F)c2)cc1-c1cnc(N2CCOCC2)c(C#N)c1 [Example 154, N-(3-(5-cyano-6-morpholinopyridin-3-yl)-4-methylphenyl)-2-(difluoromethyl) isonicotinamide]
0.202	1.34	Cc1ncc(NC(=O)c2cccc(C(F)(F)F)c2)cc1-c1cnc(C2CCOCC2)c(C#N)c1 [Example 128]
0.832	3.7	Cc1ncc(NC(=O)c2ccnc(C(C)(C)C#N)c2)cc1-c1cnc(N2CCOCC2)c(C#N)c1 [Example 64, N-(5′-cyano-2-methyl-6′-morpholino-[3,3′-bipyridin]-5-yl)-2-(2-cyanopropan-2-yl)isonicotinamide]
0.432	3.4	Cc1ccc(NC(=O)c2cccc(C(F)(F)F)c2)cc1-c1cnc(Cl)c(C#N)c1 [Example 33, N-(3-(6-chloro-5-cyanopyridin-3-yl)-4-methylphenyl)-3-(trifluoromethyl)benzamide]
0.192	1.51	COCCNc1ncc(-c2cc(NC(=O)c3ccnc(C(F)F)c3)ccc2C)cc1C#N [Example 178, N-(3-(5-cyano-6-((2-methoxyethyl)amino)pyridin-3-yl)-4-methylphenyl)-2-(difluoromethyl) isonicotinamide]
1.35	6.14	Cc1ncc(NC(=O)c2cnnc(C(C)(C)C#N)c2)cc1-c1cnc(N2CCOCC2)c(C#N)c1 [Example 207, N-(5′-cyano-2-methyl-6′-morpholino-[3,3′-bipyridin]-5-yl)-6-(2-cyanopropan-2-yl)pyridazine-4-carboxamide]
3.53	11.9	Cc1ncc(NC(=O)c2ccnc(C(C)(C)C#N)c2)cc1-c1cnc(OC(C)C)c(C#N)c1 [Example 96, N-(5′-cyano-6′-isopropoxy-2-methyl-[3,3′-bipyridin]-5-yl)-2-(2-cyanopropan-2-yl)isonicotinamide]
0.653	2.54	Cc1ccc(NC(=O)c2cc(C(C)(C)N)cc(C(F)(F)F)c2)cc1-c1cnc(N2CCOCC2)c(C#N)c1 [Example 249, 3-(2-aminopropan-2-yl)-N-(3-(5-cyano-6-morpholinopyridin-3-yl)-4-methylphenyl)-5-(trifluoromethyl) benzamide]
1.03	5.73	Cc1ccc(NC(=O)c2ccnc(C(C)(C)C#N)c2)cc1-c1cnc(Cl)c(C#N)c1 [Example 32, N-(3-(6-chloro-5-cyanopyridin-3-yl)-4-methylphenyl)-2-(2-cyanopropan-2-yl)isonicotinamide]
0.127	0.9	Cc1ccc(NC(=O)c2ccnc(C(F)(F)F)c2)cc1-c1cnc(N(C)C)c(C#N)c1 [Example 25, N-(3-(5-cyano-6-(dimethylamino)pyridin-3-yl)-4-methylphenyl)-2-(trifluoromethyl) isonicotinamide]
0.409	2	COCCNc1ncc(-c2cc(NC(=O)c3cc(C(F)(F)F)ccn3)ccc2C)cc1C#N [Example 228, N-(3-(5-cyano-6-((2-methoxyethyl)amino)pyridin-3-yl)-4-methylphenyl)-4-(trifluoromethyl) picolinamide]
0.818	5.23	COCCNc1ncc(-c2cc(NC(=O)c3ccnc(C4(C#N)CC4)c3)cnc2C)cc1C#N [Example 197, N-(5′-cyano-6′-((2-methoxyethyl)amino)-2-methyl-[3,3′-bipyridin]-5-yl)-2-(1-cyanocyclopropyl) isonicotinamide]
2370	15100	Cc1ccc(NC(=O)c2ccccc2)cc1-c1cncc(C#N)c1 [Example 149, N-(3-(5-cyanopyridin-3-yl)-4-methylphenyl) benzamide]
1.75	6.84	COCCOc1ncc(-c2cc(NC(=O)c3ccnc(C(F)(F)F)c3)cnc2C)cc1C#N [Example 93, N-(5′-cyano-6′-(2-methoxyethoxy)-2-methyl-[3,3′-bipyridin]-5-yl)-2-(trifluoromethyl) isonicotinamide]
0.0423	0.304	Cc1ccc(NC(=O)c2ccnc(C(F)F)c2)cc1-c1cnc(-c2cnn(C)c2)c(C#N)c1 [Example 126, N-(3-(5-cyano-6-(1-methyl-1H-pyrazol-4-yl)pyridin-3-yl)-4-methylphenyl)-2-(difluoromethyl) isonicotinamide]
0.121	0.488	Cc1ccc(NC(=O)c2ccnc(C(F)(F)F)c2)cc1-c1cnc(N2CC(O)C2)c(C#N)c1 [Example 63, N-(3-(5-cyano-6-(3-hydroxyazetidin-1-yl)pyridin-3-yl)-4-methylphenyl)-2-(trifluoromethyl) isonicotinamide]
0.397	2.15	Cc1ccc(NC(=O)c2ccnc(C(C)(C)C#N)c2)cc1-c1cnc(NC2CC2)c(C#N)c1 [Example 19, N-(3-(5-cyano-6-(cyclopropylamino)pyridin-3-yl)-4-methylphenyl)-2-(2-cyanopropan-2-yl)isonicotinamide]
1.15	3.02	Cc1ncc(NC(=O)c2ccnc(C(C)(C)C#N)c2)cc1-c1cnc(N2CCOC[C@@H]2C)c(C#N)c1 [Example 87, (S)-N-(5′-cyano-2-methyl-6′-(3-methylmorpholino)-[3,3′-bipyridin]-5-yl)-2-(2-cyanopropan-2-yl)isonicotinamide]
0.745	4.26	Cc1ncc(NC(=O)c2ccnc(C3CC3)c2)cc1-c1cnc(C2CCOCC2)c(C#N)c1 [Example 131, N-(5′-cyano-2-methyl-6′-(tetrahydro-2H-pyran-4-yl)-[3,3′-bipyridin]-5-yl)-2-cyclopropyl-isonicotinamide]
0.591	3.65	CCn1cc(C(=O)Nc2ccc(C)c(-c3cnc(N4CC(C)(O)C4)c(C#N)c3)c2)cc(C(F)(F)F)c1=O [Example 221, N-(3-(5-cyano-6-(3-hydroxy-3-methylazetidin-1-yl)pyridin-yl)-4-methylphenyl)-1-ethyl-6-oxo-5-(trifluoromethyl)-1,6-dihydropyridine-3-carboxamide]
4.96	30.7	Cc1ncc(NC(=O)c2cc(C(C)(C)N)cc(C(F)(F)F)c2)cc1-c1cnc(N2CC(C)(O)C2)c(C#N)c1 [Example 247, 3-(2-aminopropan-2-yl)-N-(5′-cyano-6′-(3-hydroxy-3-methylazetidin-1-yl)-2-methyl-[3,3′-bipyridin]-5-yl)-5-(trifluoromethyl) benzamide]
0.199	1.23	Cc1ccc(NC(=O)c2cnnc(C(C)(C)C#N)c2)cc1-c1cnc(N2CCOCC2)c(C#N)c1 [Example 206, N-(3-(5-cyano-6-morpholinopyridin-3-yl)-4-methylphenyl) 6-(2-cyanopropan-2 yl)pyridazine-4-carboxamide]
0.307	0.871	Cc1ccc(NC(=O)c2ccnc(C(F)(F)F)c2)cc1-c1cnc(C(C)C)c(C#N)c1 [Example 121, N-(3-(5-cyano-6-isopropylpyridin-3-yl)-4-methylphenyl)-2-(trifluoromethyl) isonicotinamide]
0.353	1.52	Cc1ccc(NC(=O)c2ccnc(C(C)(C)O)c2)cc1-c1cnc(N(C)C)c(C#N)c1 [Example 256, N-(3-(5-cyano-6-(dimethylamino)pyrdin-3-yl)-4-methylphenyl)-2-(2-hydroxypropan-2-yl)isonicotinamide]
0.672	10.2	Cc1ccc(NC(=O)c2ccnc(C(F)(F)F)c2)cc1-c1cc(C#N)c(N)nc1C [Example 42, N-(3-(6-amino-5-cyano-2-methylpyridin-3-yl)-4-methylphenyl)-2-(trifluoromethyl) isonicotinamide]
